Assay results published in publication PMC5469758, “Identification of an in vivo orally active dual-binding protein-protein interaction inhibitor targeting TNFα through combined in silico/in vitro/in vivo screening” (Scientific Reports, 2017).
Like-named read-outs stand apart in the source and are kept apart here.

Assays:
IKKε = biological target: T1, IKKε (Homo sapiens, UniProt Q14164); assay: CEREP/Eurofins kinase inhibition, IKKε; assay type: biochemical; conditions: read-out: % Inhibition of Control Values
T1 construct: purchased CEREP/Eurofins
T1 sequence (Q14164 whole entry): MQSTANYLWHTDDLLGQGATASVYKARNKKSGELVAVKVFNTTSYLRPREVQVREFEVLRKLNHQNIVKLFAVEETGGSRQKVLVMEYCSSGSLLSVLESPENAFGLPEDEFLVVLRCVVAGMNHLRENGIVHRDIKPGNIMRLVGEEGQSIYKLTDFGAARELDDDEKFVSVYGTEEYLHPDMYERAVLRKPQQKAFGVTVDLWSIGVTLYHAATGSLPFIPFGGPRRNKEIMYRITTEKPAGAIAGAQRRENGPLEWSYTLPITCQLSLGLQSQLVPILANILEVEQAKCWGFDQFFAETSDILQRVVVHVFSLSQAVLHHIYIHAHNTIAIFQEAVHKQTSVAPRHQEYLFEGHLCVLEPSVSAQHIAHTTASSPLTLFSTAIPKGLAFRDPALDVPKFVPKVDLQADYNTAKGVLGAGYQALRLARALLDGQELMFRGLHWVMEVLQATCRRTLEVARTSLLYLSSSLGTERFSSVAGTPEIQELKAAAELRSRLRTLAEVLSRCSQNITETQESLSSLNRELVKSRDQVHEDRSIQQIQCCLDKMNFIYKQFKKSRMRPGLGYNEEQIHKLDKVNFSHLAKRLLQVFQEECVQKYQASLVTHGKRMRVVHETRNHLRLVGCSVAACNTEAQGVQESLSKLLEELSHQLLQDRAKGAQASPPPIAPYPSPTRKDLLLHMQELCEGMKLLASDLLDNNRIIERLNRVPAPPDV
Experimental: (§1) Kinases and caspases activities in presence of 1 µM of compound 1 were carried out by CEREP/Eurofins (Celle-Lévescault). The activity of compound 1 on the different kinases and caspases was compared to control values. Data are expressed as percentages of inhibition of control values.

[1] = test system: human TNFα induced apoptosis on the L929 cell line; assay: Neutralization of human TNFα induced apoptosis in L929 cells (MTT); assay type: cell-based; conditions: human TNFα, read-out: IC50, inhibition of TNFα induced apoptosis
Experimental: (§2) 80% confluent L929 cells were plated in flat bottom plates at 4 × 10^5 cells per well in 100 μl of DMEM medium containing 10% FBS, 2 mM L-Glutamine, 100 U/ml Penicillin − 100 μg/ml Streptomycin and incubated for one night at 37 °C, 5% CO2. TNFα or TNFβ (150 pg/ml), Actinomycin D (4 μg/ml) and the compounds at different concentrations (ranging from 100 μM to 0.8 μM) were mixed in 150 μl DMEM medium 1% FBS, 2 mM L-Glutamine, 100 U/ml Penicillin−100 μg/ml Streptomycin in U-bottom plates. After two hours incubation at 37 °C, 5% CO2, 100 μl of the mix was added to the plated cells and incubated at 37 °C, 5% CO2 for 24 hours. Supernatants were discarded and 100 μl of MTT at 0.5 mg/ml were added to wells. After two hours, supernatants were discarded and 200 μl of DMSO were then added. Plates were read at 570 nm with a spectrophotometer providing the optical density (OD) of each well. The percentage of neutralization of TNFα by a compound was calculated using equation 3:3 %Neutra=ODcompound−ODTNFα/ODcells−ODTNFα×100
(§3) An IC50 could be computed from the percentage of neutralization for each compound.

Bioavailability = assay type: in vivo; conditions: mouse, oral
TNFα/TNFRII = biological target: T2, TNFα/TNFRII (Homo sapiens, UniProt P01375); assay: TNFα-TNFRII binding ELISA; assay type: biochemical
T2 construct: purchased R&D Systems
T2 sequence (P01375 77-233 limits assumed): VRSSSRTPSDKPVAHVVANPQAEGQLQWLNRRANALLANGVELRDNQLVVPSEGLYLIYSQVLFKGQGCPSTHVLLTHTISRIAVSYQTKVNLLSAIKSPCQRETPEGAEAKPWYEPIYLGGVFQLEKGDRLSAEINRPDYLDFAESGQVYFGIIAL
Experimental: (§4) Microtiter plates were coated with 12.5 ng of TNFRI or TNFRII in 125 μl of PBS per well at 37 °C. The wells were washed, blocked with PBS/BSA 2% for three hours and washed as before. Serial dilutions of compounds were mixed with a fixed quantity of TNFα in PBS/BSA 1% and incubated two hours at 37 °C. 125 μl of the mix were added to the wells and plates were incubated overnight at 4 °C. Wells were washed incubated with 37.5 ng of TNFα biotinylated antibody in 125 μl of PBS/BSA 1% for two hours at 37 °C. Wells were washed and incubated with avidin-HRP (1:500) in 125 μl of PBS/BSA 1% for 30 minutes at 37 °C, 5% CO2. After washing, TMB solution was added to wells, quenched with 63 μl of 1 M H2SO4 solution. Absorbance was measured at 450 nm.

IKKα = biological target: T3, IKKα (Homo sapiens, UniProt O15111); assay: CEREP/Eurofins kinase inhibition, IKKα; assay type: biochemical; conditions: read-out: % Inhibition of Control Values
T3 construct: purchased CEREP/Eurofins
T3 sequence (O15111 whole entry): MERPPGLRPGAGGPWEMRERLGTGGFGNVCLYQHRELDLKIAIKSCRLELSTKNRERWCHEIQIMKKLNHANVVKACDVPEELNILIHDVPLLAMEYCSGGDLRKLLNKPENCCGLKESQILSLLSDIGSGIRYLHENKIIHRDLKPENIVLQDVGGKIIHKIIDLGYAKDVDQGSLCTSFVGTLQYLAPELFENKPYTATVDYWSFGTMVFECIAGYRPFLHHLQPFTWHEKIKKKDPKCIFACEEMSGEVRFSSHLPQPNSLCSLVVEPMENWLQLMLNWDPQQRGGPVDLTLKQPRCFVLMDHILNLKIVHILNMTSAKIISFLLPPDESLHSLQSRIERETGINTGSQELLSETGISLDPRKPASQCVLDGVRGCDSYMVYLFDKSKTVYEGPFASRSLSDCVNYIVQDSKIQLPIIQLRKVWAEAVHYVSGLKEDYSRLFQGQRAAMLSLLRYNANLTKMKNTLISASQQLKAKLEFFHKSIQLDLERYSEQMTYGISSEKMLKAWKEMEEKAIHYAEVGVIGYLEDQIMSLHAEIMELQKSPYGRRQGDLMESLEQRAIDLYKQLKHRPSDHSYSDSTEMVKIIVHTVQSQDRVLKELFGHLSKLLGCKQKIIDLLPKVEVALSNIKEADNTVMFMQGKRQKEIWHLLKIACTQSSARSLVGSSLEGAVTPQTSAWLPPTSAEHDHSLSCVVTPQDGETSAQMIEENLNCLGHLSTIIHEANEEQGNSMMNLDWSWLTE
Experimental: as §1

caspase 3 activation = assay: Caspase-Glo 3 activation assay; assay type: cell-based; conditions: dose dependent
Experimental: (§5) Caspases 3 and 8 activation was determined using Caspase-Glo® 3 and Caspase-Glo-8® assays kits (Promega) according to the manufacter’s procedures. After 8 hours of treatment, plates were equilibrated at room temperature. 100 μl Caspase-Glo 3® and Caspase-Glo 8® reagent were added to each well. Luminescence was read on a FLUOstar OPTIMA reader.

TNFα [2] = biological target: T4, TNFα (Homo sapiens, UniProt P01375); assay: Surface Acoustic Wave (SAW) biosensor gravimetric measurement of dissociation constants; assay type: binding; conditions: for Kd: two-site binding model, room temperature
T4 construct: purchased R&D Systems
T4 sequence (P01375 77-233 limits assumed): as the sequence (P01375 77-233 limits assumed) above
Experimental: Gravimetric measurements were performed using surface acoustic wave (SAW) sensors. TNFα solutions were prepared by diluting 10 µg of lyophilized TNFα in 1 ml of PBS. They were kept in the freezer (at −18 °C) and put at room temperature just before their further grafting onto the gold surface area of the SAW sensor.
Phase shift variations (ΔΦ) versus compound concentration (C) were fitted using equation 1 ΔΦ=Φsat×C/Kd+C where Φsat represents the maximum sensor’s response to the compound binding and Kd represents the equilibrium dissociation constant.
In the case of a two-site binding, equation 2 was used for fitting:2 ΔΦ=Φsat,1×C/Kd1+C+Φsat,2×C/Kd2+C
where Φsat1 and Φsat2 are related to the maximum sensor’s response for each binding site and Kd1 and Kd2 are their respective dissociation constants.

JNK1 = biological target: T5, JNK1 (Homo sapiens, UniProt P45983); assay: CEREP/Eurofins kinase inhibition, JNK1; assay type: biochemical; conditions: JNK1, 1 μM; read-out: % Inhibition of Control Values
T5 construct: purchased CEREP/Eurofins
T5 sequence (P45983 whole entry): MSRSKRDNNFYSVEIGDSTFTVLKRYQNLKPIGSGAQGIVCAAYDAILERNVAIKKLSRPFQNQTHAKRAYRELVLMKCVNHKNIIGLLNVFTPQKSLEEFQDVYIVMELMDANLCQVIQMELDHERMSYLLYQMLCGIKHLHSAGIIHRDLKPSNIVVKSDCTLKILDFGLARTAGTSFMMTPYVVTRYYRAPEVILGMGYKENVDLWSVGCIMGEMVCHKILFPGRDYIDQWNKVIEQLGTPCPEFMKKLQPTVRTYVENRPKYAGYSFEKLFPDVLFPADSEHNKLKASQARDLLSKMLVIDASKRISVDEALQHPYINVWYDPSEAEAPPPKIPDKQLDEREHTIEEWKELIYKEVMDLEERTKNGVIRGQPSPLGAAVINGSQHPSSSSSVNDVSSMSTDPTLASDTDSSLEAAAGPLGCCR
Experimental: as §1

[3] = Solubility in aqueous solvents; assay type: physicochemical
[4] = test system: TNFβ induced apoptosis in L929 cell line; assay: Neutralization of TNFβ induced apoptosis in L929 cells (MTT); assay type: cell-based
Experimental: as §2, §3

[5] = test system: CXCL1 secretion by L929 cells; assay: CXCL1 secretion in L929 supernatants after TNFα stimulation (ELISA); assay type: cell-based, murine; conditions: TNFα (5 ng/ml)
Experimental: Cells were plated at 2.5 × 10^5 cells/well in 24-well plates and treated as indicated. Eight hours later, supernatants were recovered and kept at −20 °C for later use. The concentration of murine CXCL1 was measured in supernatants with a dosage ELISA kit obtained from R&D Systems (Lille, France) according to the manufacter’s procedures.

[6] = test system: TNFα induced NF-κB activation in HEK cells; assay: HEK-Blue TNFα NF-κB secreted embryonic alkaline phosphatase reporter assay; assay type: cell-based, human; conditions: Homo sapiens, HEK293; HEK cell line expressing TNFRI; read-out: IC50, TNFα signaling NF-κB reporter
Experimental: 80% confluent HEK-Blue™ TNFα were plated in flat bottom plates at 5 × 10^4 per well in 100 μl of DMEM containing 2 mM L-Glutamine, 100 U/ml Penicillin − 100 μg/ml Streptomycin and incubated at 37 °C, 5% CO2. Serial dilutions of compounds (ranging from 100 μM to 0.8 μM) were mixed with 400 pg/ml of human TNFα in DMEM containing 2% of FBS, 2 mM L-Glutamine, 100 U/ml Penicillin−100 μg/ml Streptomycin in U-bottom plates. After two hours of incubation at 37 °C, 5% CO2, 100 μl of the mix was added to the plated cells and incubated 24 hours at 37 °C, 5% CO2. 20 μl of supernatants were incubated for 3 hours with 180 μl of QUANTI-Blue™ to reveal secretion of phosphatase alcaline and plates were read at 620 nm with a spectrophotometer providing the optical density (OD).

p38γ kinase = biological target: T6, p38γ kinase (Homo sapiens, UniProt P53778); assay: CEREP/Eurofins kinase inhibition, p38γ; assay type: biochemical; conditions: read-out: % Inhibition of Control Values
T6 construct: purchased CEREP/Eurofins
T6 sequence (P53778 whole entry): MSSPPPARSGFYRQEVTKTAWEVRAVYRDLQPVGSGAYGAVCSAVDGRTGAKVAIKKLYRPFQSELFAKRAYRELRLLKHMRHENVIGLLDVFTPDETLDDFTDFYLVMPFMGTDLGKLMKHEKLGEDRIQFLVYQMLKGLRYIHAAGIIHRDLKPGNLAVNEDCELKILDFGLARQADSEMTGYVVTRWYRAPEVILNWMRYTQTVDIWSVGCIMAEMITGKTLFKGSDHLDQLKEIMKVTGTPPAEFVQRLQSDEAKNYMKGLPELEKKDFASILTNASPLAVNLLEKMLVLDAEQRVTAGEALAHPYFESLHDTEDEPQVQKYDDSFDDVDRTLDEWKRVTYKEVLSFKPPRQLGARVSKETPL
Experimental: as §1

Caspase 8 = biological target: T7, Caspase 8 (Homo sapiens, UniProt Q14790); assay: CEREP/Eurofins caspase inhibition, Caspase 8; assay type: biochemical; conditions: Caspase 8, 1 μM; read-out: % Inhibition of Control Values
T7 construct: purchased CEREP/Eurofins
T7 sequence (Q14790 217-374 limits assumed): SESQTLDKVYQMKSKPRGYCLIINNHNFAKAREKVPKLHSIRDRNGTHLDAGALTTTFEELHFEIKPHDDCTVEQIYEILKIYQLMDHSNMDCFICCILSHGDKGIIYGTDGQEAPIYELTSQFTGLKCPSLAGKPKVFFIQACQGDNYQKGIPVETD
Experimental: as §1

Caspase 3 = biological target: T8, Caspase 3 (Homo sapiens, UniProt P42574); assay: CEREP/Eurofins caspase inhibition, Caspase 3; assay type: biochemical; conditions: Caspase 3, 1 μM; read-out: % Inhibition of Control Values
T8 construct: purchased CEREP/Eurofins
T8 sequence (P42574 29-175 limits assumed): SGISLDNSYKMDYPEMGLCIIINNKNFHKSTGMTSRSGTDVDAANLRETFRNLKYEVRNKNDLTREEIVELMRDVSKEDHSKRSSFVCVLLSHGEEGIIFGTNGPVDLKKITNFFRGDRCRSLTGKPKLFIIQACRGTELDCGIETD
Experimental: as §1

[7] = test system: IκB kinases (IKK), JNK1, p38 and Syk, caspase 3, caspase 8; assay: Direct inhibition of kinases and caspases related to the TNFα pathway (CEREP/Eurofins panel); assay type: biochemical; conditions: at 1 µM
Experimental: as §1

TNFα/TNFRI = biological target: T9, TNFα/TNFRI (Homo sapiens, UniProt P01375); assay: TNFα-TNFRI binding ELISA; assay type: biochemical
T9 construct: purchased R&D Systems
T9 sequence (P01375 77-233 limits assumed): as the sequence (P01375 77-233 limits assumed) above
Experimental: as §4

p38δ kinase = biological target: T10, p38δ kinase (Homo sapiens, UniProt O15264); assay: CEREP/Eurofins kinase inhibition, p38δ; assay type: biochemical; conditions: read-out: % Inhibition of Control Values
T10 construct: purchased CEREP/Eurofins
T10 sequence (O15264 whole entry): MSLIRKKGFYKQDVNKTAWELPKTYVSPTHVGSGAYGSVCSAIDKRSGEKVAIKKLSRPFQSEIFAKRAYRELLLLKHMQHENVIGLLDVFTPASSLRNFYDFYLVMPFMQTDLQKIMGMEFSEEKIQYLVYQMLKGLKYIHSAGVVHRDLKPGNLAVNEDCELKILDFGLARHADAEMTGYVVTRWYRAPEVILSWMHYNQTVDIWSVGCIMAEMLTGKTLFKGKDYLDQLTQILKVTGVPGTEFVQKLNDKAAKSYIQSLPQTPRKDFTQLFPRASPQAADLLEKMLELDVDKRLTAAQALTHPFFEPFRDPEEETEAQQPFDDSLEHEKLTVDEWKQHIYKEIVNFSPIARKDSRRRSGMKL
Experimental: as §1

[8] = test system: murine TNFα-induced apoptosis on L929 cells; assay: Neutralization of murine TNFα induced apoptosis in L929 cells; assay type: cell-based; conditions: Mus musculus
Experimental: as §2, §3

caspase 8 activation = assay: Caspase-Glo 8 activation assay; assay type: cell-based; conditions: dose dependent
Experimental: as §5

IKKβ = biological target: T11, IKKβ (Homo sapiens, UniProt O14920); assay: CEREP/Eurofins kinase inhibition, IKKβ; assay type: biochemical; conditions: read-out: % Inhibition of Control Values
T11 construct: purchased CEREP/Eurofins
T11 sequence (O14920 whole entry): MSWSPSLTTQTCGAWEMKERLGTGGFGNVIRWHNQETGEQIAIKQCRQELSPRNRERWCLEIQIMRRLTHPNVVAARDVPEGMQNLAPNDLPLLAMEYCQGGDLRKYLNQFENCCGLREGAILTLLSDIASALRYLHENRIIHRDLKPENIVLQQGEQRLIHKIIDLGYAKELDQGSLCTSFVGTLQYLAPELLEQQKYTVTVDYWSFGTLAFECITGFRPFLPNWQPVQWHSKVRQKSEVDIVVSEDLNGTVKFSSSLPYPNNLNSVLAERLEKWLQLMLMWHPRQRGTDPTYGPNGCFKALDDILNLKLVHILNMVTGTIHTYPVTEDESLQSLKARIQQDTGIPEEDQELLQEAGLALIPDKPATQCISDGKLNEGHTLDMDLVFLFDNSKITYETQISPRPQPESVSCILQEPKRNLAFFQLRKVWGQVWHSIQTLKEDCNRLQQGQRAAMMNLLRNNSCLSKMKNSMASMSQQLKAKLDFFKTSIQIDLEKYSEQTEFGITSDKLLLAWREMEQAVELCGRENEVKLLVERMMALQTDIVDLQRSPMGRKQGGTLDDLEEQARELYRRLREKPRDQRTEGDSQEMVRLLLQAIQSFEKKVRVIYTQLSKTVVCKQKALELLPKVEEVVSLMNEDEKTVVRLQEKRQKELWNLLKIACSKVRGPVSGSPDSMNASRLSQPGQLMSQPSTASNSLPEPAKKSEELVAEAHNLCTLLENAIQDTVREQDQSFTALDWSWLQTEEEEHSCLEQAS
Experimental: as §1

Balb/C mice = assay: LPS/D-Galactosamine induced lethal shock (TNFα-dependent hepatic shock model); assay type: in vivo
Experimental: 7 weeks-old Balb/C mice were force-fed with 100 μl of a solution of DMSO containing various doses of compound 1 (5 mg down to 0.5 mg) eight hours before receiving an intraperitoneal injection of 200 μl of PBS containing 0.1 μg of LPS and 20 mg of D-Galactosamine. A control group (DMSO) was force-fed with 100 μl of a solution of DMSO alone eight hours before to be injected with 200 μl of LPS/D-Galactosamine solution. Mice survival was monitored for 48 hours after the injection of LPS/D-Galactosamine.
7 weeks-old Balb/C mice were forced-fed with a solution of DMSO containing 5 mg of compound 1 eight hours before receiving an intraperitoneal injection of 200 μl of PBS containing 0.1 μg of LPS and 20 mg of D-Galactosamine. Eight hours after LPS/D-Galactosamine injection, mice were sacrificed by cervical dislocation and livers were harvested, fixed in 4% formalin and embedded in paraffin. […] Slides were scanned with a slide scanner (Perkin Elmer) and analyzed with Pannoramic viewer (3D HISTECH).
7 weeks-old Balb/C mice were forced-fed with a solution of DMSO containing 5 mg of compound 1 eight hours before receiving an intraperitoneal injection of 200 μl of PBS containing 0.1 μg of LPS and 20 mg of D-Galactosamine. Three hours after LPS/D-Galactosamine injection, mice were anesthetized with ketamine/xylazine to recover blood by cardiac puncture. Sera were kept at −80 °C until assay.
TNFα in serum was quantified using U-CyTech biosciences kits (Utrecht, The Netherlands) according to manufacturer’s procedures.
7 weeks-old Balb/C mice were forced-fed with a solution of DMSO containing 5 mg of compound 1 eight hours before receiving an intraperitoneal injection of 200 μl of PBS containing 0.1 μg of LPS and 20 mg of D-Galactosamine. Eight hours after, mice were anesthetized by an injection of ketamine/xylazine to recover blood by cardiac puncture. Sera were kept at −80 °C until assay. Quantification of AST/ALT was performed using Architec ci 8200 analyser (Abbott) with reagent kits from Abbott.

p38α kinase = biological target: T12, p38α kinase (Homo sapiens, UniProt Q16539); assay: CEREP/Eurofins kinase inhibition, p38α; assay type: biochemical; conditions: read-out: % Inhibition of Control Values
T12 construct: purchased CEREP/Eurofins
T12 sequence (Q16539 whole entry): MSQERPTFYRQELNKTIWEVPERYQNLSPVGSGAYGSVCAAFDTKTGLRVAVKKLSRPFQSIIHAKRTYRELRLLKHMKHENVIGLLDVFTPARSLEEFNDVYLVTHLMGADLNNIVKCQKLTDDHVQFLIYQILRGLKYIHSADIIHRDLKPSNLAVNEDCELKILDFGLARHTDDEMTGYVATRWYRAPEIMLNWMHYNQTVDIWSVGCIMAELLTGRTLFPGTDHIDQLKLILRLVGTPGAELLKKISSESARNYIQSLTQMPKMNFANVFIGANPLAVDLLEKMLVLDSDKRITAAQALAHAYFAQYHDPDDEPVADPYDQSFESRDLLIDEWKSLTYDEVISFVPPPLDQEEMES
Experimental: as §1

Syk = biological target: T13, Syk (Homo sapiens, UniProt P43405); assay: CEREP/Eurofins kinase inhibition, Syk; assay type: biochemical; conditions: read-out: % Inhibition of Control Values
T13 construct: purchased CEREP/Eurofins
Experimental: as §1

TNFα [9] = biological target: T4, TNFα; assay: Intrinsic tryptophan fluorescence of TNFα; assay type: binding; conditions: 0.5 μM TNFα; 20–100 µM range
Experimental: All samples were brought to 10 mM phosphate buffer, 0.05% Tween20, 1% DMSO. Fluorescence readings were made with a Quantamaster QM4CW spectrofluorimeter (Photon Technology International), by exciting TNFα at 290 nm and measuring the emission peaks at 322 nm. Compound 1 inner filter effects were corrected using absorbance measurements of compound alone solutions at 290 nm and 322 nm.

[10] = livers eight hours after LPS/D-Galactosamine

Cc1c(Cl)cccc1N(CC(=O)N1CCN(Cc2ccccc2)CC1)S(=O)(=O)c1ccccc1 [Compound 1]
inhibition at 1 µM (IKKε): 7.3% | IC50 ([1]; L929, L929 cell line): 12 µM | IC50 ([1]; L929 cell line): ~10 µM | bioavailability (Bioavailability): low bioavailability | IC50 (TNFα/TNFRII): 31 µM | inhibition at 1 µM (IKKα): 3.2% | activation of caspase 3 (caspase 3 activation): blocked the activation | ligand efficiency LE1 (TNFα [2]; from Kd1): 0.22 | ligand efficiency LE2 (TNFα [2]; from Kd2): 0.37 | Kd (TNFα [2]; read-out: Kd1 of TNFα/compound 1 complex): 4790 ± 1120 nM | Kd (TNFα [2]; read-out: Kd2 of TNFα/compound 1 complex): 2.31 ± 1.03 nM | inhibition at 1 µM (JNK1): -3% | solubility in aqueous solvents [3]: moderate solubility | maximal survival ([4]; TNFβ, at 100 μM): 40% | IC50 ([4]; read-out: IC50, inhibition of TNFβ induced apoptosis): 28 µM | CXCL1 in supernatants [5]: significantly less CXCL1 | IC50 [6]: 10 µM | inhibition at 1 µM (p38γ kinase): -11% | inhibition at 1 µM (Caspase 8): -7.3% | inhibition at 1 µM (Caspase 3): -1.8% | effect on kinases and caspases related to the TNFα pathway [7]: no significant effect | IC50 (TNFα/TNFRI): 37 µM | inhibition at 1 µM (p38δ kinase): -1.8% | IC50 [8]: ~10 µM | activation of caspase 8 (caspase 8 activation): blocked the activation | inhibition at 1 µM (IKKβ): 10.3% | expression of cleaved caspase 3 in liver (immunohistochemistry) (Balb/C mice; [10]): reduced expression of cleaved caspase 3 | liver damage and hemorrhage (H&E histopathology) (Balb/C mice; [10]): reduced liver damage and hemorrhage | mice survival / protection from shock (Balb/C mice; oral 5 mg per mouse eight hours before shock): fully protective effect | mice serum level of AST/ALT (Balb/C mice; oral 5 mg, eight hours after shock): diminished | mice serum level of TNFα (Balb/C mice; oral 5 mg, three hours after shock): did not affect | inhibition at 1 µM (p38α kinase): 1.5% | inhibition at 1 µM (Syk): -6.9% | modification of intrinsic tryptophan fluorescence of TNFα (TNFα [9]): dose dependent manner
